In ChEMBL document CHEMBL1201862, “PubChem BioAssay data set” (2004):
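Cultured in 96-well plates, cells were exposed to test compound for 48 hours across five concentrations. GI50 = concentration required for 50% inhibition of growth.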 Calls of active or inactive are those of the source. No stated cut-off is given here; in the data, active = GI50 up to about 1.1 µM and inactive = higher.

Experiments:
Experiment in all cases: growth of human tumour cells (NCI), 48 h
EKVX = system: EKVX
OVCAR-3 = system: OVCAR-3
DU-145 = system: DU-145
SK-OV-3 = system: SK-OV-3
OVCAR-8 = system: OVCAR-8
Malme-3M = system: Malme-3M
UACC-257 = system: UACC-257
SK-MEL-2 = system: SK-MEL-2
HL-60 = system: HL-60
BT-549 = system: BT-549
KM12 = system: KM12
CCRF-CEM = system: CCRF-CEM
LOX IMVI = system: LOX IMVI
ACHN = system: ACHN
OVCAR-4 = system: OVCAR-4
M14 = system: M14
HCC 2998 = system: HCC 2998
SK-MEL-5 = system: SK-MEL-5
RXF 393 = system: RXF 393
MDA-MB-231 = system: MDA-MB-231

SMILES | GI50 (EKVX) | GI50 (OVCAR-3) | GI50 (DU-145) | GI50 (SK-OV-3) | GI50 (OVCAR-8) | GI50 (Malme-3M) | GI50 (UACC-257) | GI50 (SK-MEL-2) | GI50 (HL-60) | GI50 (BT-549) | GI50 (KM12) | GI50 (CCRF-CEM) | GI50 (LOX IMVI) | GI50 (ACHN) | GI50 (OVCAR-4) | GI50 (M14) | GI50 (HCC 2998) | GI50 (SK-MEL-5) | GI50 (RXF 393) | GI50 (MDA-MB-231)
NC1C/C(=N\O)c2c(Cl)sc(Cl)c21 (stereo not drawn) | 18.5 µM (inactive) | 17.3 µM (inactive) | 15.1 µM (inactive) | > 100 µM (inactive) | 15.2 µM (inactive) | 19.5 µM (inactive) | 17.1 µM (inactive) | 19.7 µM (inactive) | 21.4 µM (inactive) | 18.5 µM (inactive) | 12 µM (inactive) | 3.17 µM (inactive) | 3.11 µM (inactive) | 21.8 µM (inactive) | 17.3 µM (inactive) | 16.8 µM (inactive) | 92.7 µM (inactive) | – | – | –
CCC1(O)CC2CC(=O)OC2C1O (stereo not drawn) | > 100 µM (inactive) | > 100 µM (inactive) | > 100 µM (inactive) | > 100 µM (inactive) | > 100 µM (inactive) | > 100 µM (inactive) | > 100 µM (inactive) | > 100 µM (inactive) | – | – | > 100 µM (inactive) | 0.423 µM (active) | > 100 µM (inactive) | > 100 µM (inactive) | > 100 µM (inactive) | > 100 µM (inactive) | > 100 µM (inactive) | > 100 µM (inactive) | > 100 µM (inactive) | > 100 µM (inactive)
CCOC(OCC)[C@H](N)[C@@H](O)[C@@H](O)[C@H]1COC(C)(C)O1 | > 100 µM (inactive) | > 100 µM (inactive) | > 100 µM (inactive) | > 100 µM (inactive) | > 100 µM (inactive) | > 100 µM (inactive) | > 100 µM (inactive) | > 100 µM (inactive) | – | – | > 100 µM (inactive) | > 100 µM (inactive) | > 100 µM (inactive) | > 100 µM (inactive) | > 100 µM (inactive) | > 100 µM (inactive) | – | > 100 µM (inactive) | – | > 100 µM (inactive)
C[C@H]1CC(=O)C2=CCCC3(SCCCS3)[C@@H]2[C@H]1CO | > 100 µM (inactive) | > 100 µM (inactive) | – | > 100 µM (inactive) | > 100 µM (inactive) | > 100 µM (inactive) | > 100 µM (inactive) | > 100 µM (inactive) | 27.1 µM (inactive) | – | > 100 µM (inactive) | 26.9 µM (inactive) | > 100 µM (inactive) | > 100 µM (inactive) | > 100 µM (inactive) | > 100 µM (inactive) | > 100 µM (inactive) | > 100 µM (inactive) | > 100 µM (inactive) | –
N#C/C(=C\c1ccc2ccccc2c1)C(=O)c1ccccc1 | > 100 µM (inactive) | > 65.2 µM (inactive) | > 100 µM (inactive) | > 46.8 µM (inactive) | 33.7 µM (inactive) | > 95.7 µM (inactive) | 82 µM (inactive) | > 100 µM (inactive) | 30.9 µM (inactive) | 52.2 µM (inactive) | > 100 µM (inactive) | 23.8 µM (inactive) | 26.1 µM (inactive) | > 100 µM (inactive) | > 100 µM (inactive) | > 64.9 µM (inactive) | > 100 µM (inactive) | > 63 µM (inactive) | 36.2 µM (inactive) | –
CCOC(=O)Cn1nc2ccc(Nc3c(C)[n+]([O-])c4cc(F)c(OCC)cc4[n+]3[O-])cc2n1 | > 100 µM (inactive) | > 100 µM (inactive) | > 100 µM (inactive) | 56.4 µM (inactive) | > 100 µM (inactive) | – | > 100 µM (inactive) | 16.8 µM (inactive) | > 100 µM (inactive) | – | > 100 µM (inactive) | > 100 µM (inactive) | > 100 µM (inactive) | 22.4 µM (inactive) | > 100 µM (inactive) | > 100 µM (inactive) | – | > 100 µM (inactive) | 20.7 µM (inactive) | 46.8 µM (inactive)
c1ccc(CNn2nnc3ccccc32)cc1 | > 100 µM (inactive) | > 100 µM (inactive) | – | > 100 µM (inactive) | > 100 µM (inactive) | > 100 µM (inactive) | > 100 µM (inactive) | > 100 µM (inactive) | > 100 µM (inactive) | – | > 100 µM (inactive) | > 100 µM (inactive) | > 100 µM (inactive) | > 100 µM (inactive) | > 100 µM (inactive) | > 100 µM (inactive) | > 100 µM (inactive) | > 100 µM (inactive) | > 100 µM (inactive) | –
COc1ccc2nc3ccc(OC)cc3c(SCc3ccc([N+](=O)[O-])cc3)c2c1 | > 100 µM (inactive) | 63 µM (inactive) | > 100 µM (inactive) | > 100 µM (inactive) | 52.7 µM (inactive) | > 100 µM (inactive) | > 100 µM (inactive) | > 100 µM (inactive) | > 100 µM (inactive) | – | > 100 µM (inactive) | > 100 µM (inactive) | > 100 µM (inactive) | 79.1 µM (inactive) | 19 µM (inactive) | > 100 µM (inactive) | > 100 µM (inactive) | – | > 100 µM (inactive) | 39.2 µM (inactive)
CC(=O)/C=C(/C=N/O)c1ccccc1 | > 100 µM (inactive) | > 100 µM (inactive) | – | > 100 µM (inactive) | > 100 µM (inactive) | > 100 µM (inactive) | > 100 µM (inactive) | 56.5 µM (inactive) | – | > 100 µM (inactive) | > 100 µM (inactive) | > 100 µM (inactive) | > 100 µM (inactive) | > 100 µM (inactive) | > 100 µM (inactive) | > 100 µM (inactive) | > 100 µM (inactive) | > 100 µM (inactive) | – | > 100 µM (inactive)
O=C(O)c1cc(CCc2cc(O)ccc2O)ccc1O | > 100 µM (inactive) | > 100 µM (inactive) | > 100 µM (inactive) | > 100 µM (inactive) | > 100 µM (inactive) | > 100 µM (inactive) | > 100 µM (inactive) | > 100 µM (inactive) | 30.6 µM (inactive) | > 100 µM (inactive) | > 100 µM (inactive) | 26.9 µM (inactive) | 32.1 µM (inactive) | > 100 µM (inactive) | > 100 µM (inactive) | > 100 µM (inactive) | – | > 100 µM (inactive) | > 100 µM (inactive) | –
Cc1cc2c3ccccc3[nH]c2c2ccnc(C)c12 | 1.49 µM (inactive) | 10.3 µM (inactive) | 6.47 µM (inactive) | 14.2 µM (inactive) | 8.69 µM (inactive) | 13.5 µM (inactive) | 18.2 µM (inactive) | 8.63 µM (inactive) | 2.07 µM (inactive) | – | 10.6 µM (inactive) | 2.29 µM (inactive) | 2.15 µM (inactive) | 15.7 µM (inactive) | > 100 µM (inactive) | 1.84 µM (inactive) | 2.87 µM (inactive) | 4.78 µM (inactive) | – | 4.08 µM (inactive)
O=Cc1ccccc1COC(=O)c1cc(C(=O)OCc2ccccc2C=O)c(C(=O)OCc2ccccc2C=O)cc1C(=O)OCc1ccccc1C=O | > 100 µM (inactive) | > 100 µM (inactive) | – | > 100 µM (inactive) | 80 µM (inactive) | > 100 µM (inactive) | > 100 µM (inactive) | 82.2 µM (inactive) | 38.2 µM (inactive) | – | > 100 µM (inactive) | 43.4 µM (inactive) | 42 µM (inactive) | > 100 µM (inactive) | > 100 µM (inactive) | > 100 µM (inactive) | > 100 µM (inactive) | > 100 µM (inactive) | 31.3 µM (inactive) | –
O=C1N(CN2CCOCC2)CN(CN2CCOCC2)C(=O)N1Cc1ccc(CN2C(=O)N(CN3CCOCC3)CN(CN3CCOCC3)C2=O)cc1 | > 100 µM (inactive) | 31.6 µM (inactive) | 45.8 µM (inactive) | > 100 µM (inactive) | 42 µM (inactive) | – | 52.2 µM (inactive) | 20.6 µM (inactive) | 60.1 µM (inactive) | – | 48.1 µM (inactive) | 62.1 µM (inactive) | 23.9 µM (inactive) | 41.8 µM (inactive) | 35.7 µM (inactive) | 28.2 µM (inactive) | > 100 µM (inactive) | > 100 µM (inactive) | – | 57.9 µM (inactive)
N#CCCC(CC#N)N1CCN(C(CC#N)CCC#N)CC1 (stereo not drawn) | > 100 µM (inactive) | > 100 µM (inactive) | > 100 µM (inactive) | > 100 µM (inactive) | > 100 µM (inactive) | > 100 µM (inactive) | > 100 µM (inactive) | – | > 100 µM (inactive) | > 100 µM (inactive) | – | > 100 µM (inactive) | – | > 100 µM (inactive) | > 100 µM (inactive) | > 100 µM (inactive) | > 100 µM (inactive) | > 100 µM (inactive) | > 100 µM (inactive) | –
O=C1CS[C@@](CC(c2ccc(Cl)cc2)c2ccc(Cl)cc2)(c2ccc(Cl)cc2)N1 | 16.9 µM (inactive) | 6.21 µM (inactive) | 39.1 µM (inactive) | 45 µM (inactive) | 14.6 µM (inactive) | 21.6 µM (inactive) | 14.3 µM (inactive) | 19.3 µM (inactive) | 3.8 µM (inactive) | 49.8 µM (inactive) | 13.4 µM (inactive) | 4.71 µM (inactive) | 8.53 µM (inactive) | 11.2 µM (inactive) | 6.82 µM (inactive) | 11.8 µM (inactive) | 19.5 µM (inactive) | 12.6 µM (inactive) | 3.56 µM (inactive) | –
O=c1c2c(c1=O)-c1ccccc1CN2 | > 100 µM (inactive) | > 100 µM (inactive) | – | > 100 µM (inactive) | > 100 µM (inactive) | > 100 µM (inactive) | > 100 µM (inactive) | > 100 µM (inactive) | > 100 µM (inactive) | – | > 100 µM (inactive) | > 100 µM (inactive) | > 100 µM (inactive) | > 100 µM (inactive) | > 100 µM (inactive) | > 100 µM (inactive) | > 100 µM (inactive) | > 100 µM (inactive) | > 100 µM (inactive) | –
